# Reference: article PMC11160895 (Research Square, 2024)
# Columns and labels:
# [1] = system: TCR4; assay: SPR binding of TCR4 to peptide/HLA-A3 complexes, 4 °C; conditions: HBS-EP pH 7.4, gp100 presented by HLA-A2 as irrelevant negative control
# Description: To help ensure the stability of the samples, we also performed the experiments at the reduced temperature of 4 °C.
# Affinities and binding kinetics were measured via surface plasmon resonance using a Biacore T200 instrument. […] The s3–4 scTv was employed as a positive control and the irrelevant Tax11–19/HLA-A*02:01 or gp100/HLA-A*02:01 complexes as a negative control. […] Experiments were performed at either 4 °C or 25 °C as indicated with a blank activated and deactivated flow cell as reference. Binding affinities were determined by fitting the curve of the reference-subtracted steady-state responses against the injected protein concentrations to a 1:1 binding model in OriginPro 2024. For measurements of dissociation rates, experiments were performed at 4 °C. TCRs or the s3–4 scTV were immobilized to approximately 300 RU on a CM5 Series S sensor chip with peptide/MHC complexes injected at a flow rate of 100 μL/min. The dissociation rate (koff) of a TCR-pMHC binding was determined by fitting the dissociation phase of the sensorgram to a single exponential decay function in OriginPro 2024. The association rate (kon) was calculated from the ratio of measured koff and the separately measured KD at 4 °C using kon=koff/KD.
# [2] = system: neoantigen-specific TCRs; conditions: cited from earlier work
# From the text: The slight change in the position of the side chain in the complex with TCR3 distorts the geometry of this interaction, although the side chain is still embedded in a complex electrostatic environment with structur ...
# [3] = target: T1, HLA-A3 (Homo sapiens, UniProt P04439); conditions: fluorescence anisotropy, position 5 5-carboxyfluorescein-lysine peptide, 100 nM complex + 100 μM unlabeled peptide, 20 mM NaH2PO4, 75 mM NaCl, pH 7.4; cited from earlier work
# T1 sequence (P04439 25-308 limits assumed): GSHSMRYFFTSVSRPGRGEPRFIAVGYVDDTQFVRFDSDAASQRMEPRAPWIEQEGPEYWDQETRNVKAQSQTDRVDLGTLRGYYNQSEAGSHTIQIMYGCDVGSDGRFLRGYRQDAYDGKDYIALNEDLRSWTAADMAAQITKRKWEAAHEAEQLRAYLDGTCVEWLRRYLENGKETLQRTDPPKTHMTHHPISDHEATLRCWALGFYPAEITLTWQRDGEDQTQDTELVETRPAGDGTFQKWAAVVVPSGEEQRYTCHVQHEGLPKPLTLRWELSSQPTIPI
# T1 sequence (P61769 21-119 partner): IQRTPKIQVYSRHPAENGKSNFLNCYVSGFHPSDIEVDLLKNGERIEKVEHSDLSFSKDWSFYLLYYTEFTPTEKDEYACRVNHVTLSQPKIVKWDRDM
# From the text: (§1) Anticipating lengthy NMR data collection times, we first verified the stability of the peptide/HLA-A3 complexes.
# [4] = target: T1, HLA-A3; assay: Peptide dissociation from HLA-A3 by fluorescence anisotropy; conditions: 100 nM labeled complex + 100 μM unlabeled peptide, pH 7.4
# Description: as §1
# Fluorescence anisotropy measurements for peptide dissociation were performed as previously described ([15]). […] Changes in anisotropy were recorded as a function of time.
# [5] = system: T cells expressing TCR4; assay: T cell degranulation CD107a, TCR4-transduced T cells co-cultured with HLA-A3+ antigen presenting cells; conditions: peptide concentrations as high as 10 μM
# Description: The peptide specificity of TCR-transduced T cells was assessed by intracellular cytokine staining (ICS) using the BD Cytofix/CytoPerm Plus Kit, following manufacturer’s instructions. Cos-7 cells were electroporated with 100 μg/mL of HLA-A*03:01 mRNA and plated into 96-well round-bottom plates overnight. […] Cells were washed with 1x PBS to remove any unbound peptide. […] Cells were washed with 1×PBS and then fixed and permeabilized for 15 minutes at 4 °C. […] All antibodies were used at a final concentration of 5 μg/mL. Finally, cells were washed with perm-wash buffer, suspended in 2% FBS in PBS and acquired on an X20 LSR Fortessa flow cytometer with the BD FACSDiva software.
# [6] = target: T1, HLA-A3; assay: 19F NMR of 5F-Trp6 peptides bound to HLA-A3; design: the extracellular domain of the MHC heavy chain, β2-microglobulin, TCR α and β chains, and the s3–4 scTv were overexpressed in E coli; made in house
# Description: ^19F NMR spectra were recorded using Bruker 600 MHz NMR instrument with a QCI cryogenic probe at NMRFAM, University of Wisconsin-Madison. […] To obtain similar sensitivities on the two samples at different concentrations, the total acquisition times of the 1D experiments in Figs. 7A–F in were set to approximately 12 hours and 33 hours, accordingly. The spectra were acquired in 4-hour blocks interleaved with proton 1D recordings to verify sample stability. For the data in Extended Data Figs. 6D,E total acquisition times were 20 minutes for both complexes. Probe temperature was maintained at a calibrated value of 5.2 °C. Once all blocks were recorded, they were checked individually for frequency drift, which was not detected, and combined to obtain combined datasets with improved signal/noise ratio. The reference frequency of the ^19F channel was set through internal routines of the Topspin acquisition software after the NMR spectrometer was locked on D2O. […] To improve the signal/noise ratio, we compared recording of ^19F 1D spectra with and without proton decoupling. […] We also optimized a recycle delay for the fluorine 1D experiment and determined that 1 s was the optimal time. Therefore, D1 of 0.4 s was used with AQ of 0.59 s. Line shape deconvolution was performed using Mestrelab MNova NMR. Free induction decays were processed with an exponential window function, Fourier- transformed, and baseline corrected prior to fitting with Lorentzian line shapes. CEST experiments were performed by applying 10–40 μW irradiation on a proton channel at a desired ppm position for 0.4 s. The total acquisition time for each CEST dataset was 2 hours. The bandwidth of the saturation pulse was directly measured on a free peptide sample by varying the saturation ppm position around the sharp peptide peak. The direct effect of the pre-saturation pulse was found detectable within +/− 0.5 ppm from the irradiation position. Exchange Spectroscopy (EXSY) experiments were performed with 50 ms mixing time. […] Data were collected in four six-hour blocks that were combined for processing.
sequence,measurement,setting,value
"AHHGGWTTK [WT peptide, wild-type PIK3CA counterpart peptide presented by HLA-A3]",binding to TCR4 (detection),[1],No binding was detectable
same,recognition by multiple neoantigen-specific TCRs,[2],unable to recognize the WT peptide/HLA-A3 complex
same,stability of peptide/HLA-A3 complex at 37 °C,[3],markedly less stable
same,stability of peptide/HLA-A3 complex at 25 °C,[4],markedly less stable
same,T cell stimulation (CD107a),[5],no stimulation was evident
same,number of 19F peaks of the complex by line shape fitting,"[6]; 5F-Trp6 peptide/HLA-A3 complex, 5 °C",at least eight
same,conformational exchange (CEST),"[6]; 5F-Trp6 peptide/HLA-A3 complex, 5 °C, EXSY consistent",all the peaks were in exchange except for the peak at −125.12 ppm
same,stability of complex on storage (19F NMR),"[6]; approximately 11 months at 4 °C, 5F-Trp6 peptide/HLA-A3",significant increase in the resonance at −125.12 ppm
